Assay results as given in patent publication US20130029928A1 (priority 2010, published 2013).
“And” between values parts separate entries of the source, which are not always exact repeats. Equal values may be shown once. Read-outs that look alike come from different tables or passages of the source.

Tests used:
PANC-1 cells = test: Transcription profiling of CXR1002-treated PANC-1 cells (ER stress genes, Ingenuity); assay type: cell-based, human; conditions: PANC-1, 24 hrs at IC15
Source text: Representation analysis of the in vitro 4996 signature list identified a number of pathways that were over-represented.

p21^WAF1 = test: p21WAF1 transcription reporter (hCG excretion) in A2780/p21WAF1 cells; assay type: cell-based, human; conditions: 24 hrs exposure; β-hCG excretion
CaCo-2 [1] = test: SRB cytotoxicity assay 48 hr; assay type: cell-based, human; conditions: read-out: IC50 Values After 48 Hrs Exposure
Experimental: (§3) The SRB assay was performed according to the method specified by the NIC/NIH. […] Assay replicates were independent in time and up to 4 replicates were performed per cell line.

Hep3B = test: SRB cytotoxicity assay 48 hr; assay type: cell-based, human; conditions: read-out: IC50 Values After 48 Hrs Exposure
Experimental: as §3

PC3 = test: SRB cytotoxicity assay 48 hr; assay type: cell-based, human; conditions: read-out: IC50 Values After 48 Hrs Exposure
Experimental: as §3

A549 = test: SRB cytotoxicity assay 48 hr; assay type: cell-based, human; conditions: read-out: IC50 Values After 48 Hrs Exposure
Experimental: as §3

A2780 = test: SRB cytotoxicity assay 48 hr; assay type: cell-based, human; conditions: read-out: IC50 Values After 48 Hrs Exposure
Experimental: as §3

A375 = test: SRB cytotoxicity assay 48 hr; assay type: cell-based, human; conditions: read-out: IC50 Values After 48 Hrs Exposure
Experimental: as §3

OUMS-27 = test: ATP depletion cytotoxicity assay 48 hr; assay type: cell-based, human
Experimental: (§4) Following exposure to Test Items, the CellTitre-Glo Luminescent Cell Viability Assay to measure ATP content was performed according to the manufacturer's detailed instructions (Promega Corporation, Technical Bulletin No. 288, and Cell notes, Issue 10, 2004).
(§5) Cells were plated at the optimal plating density for that cell line in 96-well plates and allowed to attach overnight. […] Cells were exposed to these compounds in Roswell Park Memorial Institute (RPMI) medium containing 10% Foetal Calf Serum (FCS) and 2 mM Glutamine at 37° C. and 5% CO2 for 48 hours. There were 3 replicates for each test item concentration.
(§6) Following exposure to Test Items, the CellTitre-Glo Luminescent Cell Viability Assay to measure ATP content will be performed according to the manufacturer's detailed instructions (Promega Corporation, Technical Bulletin No. 288, and Cell notes, Issue 10, 2004).

PANC-1 = test: ATP depletion cytotoxicity assay 48 hr; assay type: cell-based, human
Experimental: as §4, §5, §6

BxPc3 = test: ATP depletion cytotoxicity assay 48 hr; assay type: cell-based, human
Experimental: as §4, §5, §6

Capan2 = test: ATP depletion cytotoxicity assay 48 hr; assay type: cell-based, human
Experimental: (§7) Assay replicates were independent in time and up to 4 replicates were performed per cell line.
(§8) Cells were plated at the optimal plating density for that cell line in 96-well plates and allowed to attach overnight. The next day, the medium was removed and replaced with fresh medium containing the dose ranges of test items. […] There were 3 replicates for each test item concentration.
as §4
(§9) Cells were plated at the optimal plating density for that cell line in 96-well plates and allowed to attach overnight. The next day, cells were pre-treated with the inhibitors UO126 or LY294002 (see Tables 18 & 20) for 2 hrs, the medium was removed and replaced with fresh medium containing the appropriate dose of the test item. […] Cells were exposed to these compounds in Roswell Park Memorial Institute (RPMI) medium containing 10% Foetal Calf Serum (FCS) and 2 mM Glutamine at 37° C. and 5% CO2 for 48 hours. There were 3 replicates for each test item concentration.
as §6

CaCo-2 [2] = test: ATP depletion cytotoxicity assay 48 hr; assay type: cell-based, human
Experimental: as §7, §8, §4, §9, §6

Canine Hepatocytes = test: ATP depletion cytotoxicity assay 48 hr; assay type: cell-based; conditions: Canis lupus familiaris, Hepatocyte, Study CXR0798, read-out: IC50 1
Experimental: as §3

[3] = tested on: panel of human tumour-derived cell lines; test: BrdU incorporation (cell proliferation) in the SRB cell line panel; assay type: cell-based; conditions: 48 hrs
[4] = tested on: panel of human tumour-derived cell lines; test: Hoechst 3342 staining (apoptotic cells) in the SRB cell line panel; assay type: cell-based
[5] = PANC-1 xenograft in female nude mice; assay type: in vivo, nude mouse; conditions: female, nude, mouse, plasma, 25 mg/kg; PANC-1 model; 24 hrs post last dose; Day 88
Experimental: (§1) A further xenograft model was performed using the human pancreatic cell line PANC-1. This tumour is slow growing in vivo. […] For various reasons, animals were lost during the study and the final group sizes were small. […] This experiment is currently being repeated to try to obtain larger group sizes at experimental completion.
(§2) In-life and terminal blood samples taken from the mice were analysed for CXR1002 levels using a validated analytical method. In-life samples averaged 146 μM and terminal blood samples (24 hours post final dose) averaged 474 μM (FIG. 7). Plasma values were higher than the whole blood values. This may be attributed to the duration of dosing. […] Furthermore, the erythrocyte/plasma partitioning coefficient (which measures the amount of drug bound to red cells compared to plasma binding) may contribute to the observed differences.

[6] = tested on: PANC-1 (pancreas) xenograft tumours; test: PANC-1 xenograft in female nude mice; assay type: in vivo, nude mouse
Experimental: as §1, §2

[7] = tested on: HepG2 (liver) xenograft tumours; test: HepG2 xenograft model of liver carcinoma; assay type: in vivo, nude mouse
Source text: There was no obvious difference between the two different dosing regimens.

CYP2C9 = CYP2C9 (Homo sapiens, UniProt P11712); test: Cytochrome P450 isozyme inhibition; assay type: in vitro ADME; conditions: under the conditions used (unpublished data); read-out: IC50 towards CYP2C9
Source text: There is no evidence that APFO is metabolised in mammals once dissociated to form perfluorooctanoate.

[8] = Phase I study CXR1002-001: urinary excretion; assay type: in vivo, human; conditions: 24 hour urine post each weekly dose
Stability / shelf life = assay type: physicochemical
[9] = tested on: Panc-1 (pancreatic tumour) cells; test: Western blot of ER stress-regulated proteins in Panc-1 cells; assay type: cell-based, human; conditions: 500 μM, 4 h to 4 days
Experimental: Western blots were performed on the protein extracts (equivalent protein concentrations were loaded onto the gels). The antibodies used were for known ER stress regulated protein Bip/GRP78, CHOP/DDIT3, IRE1alpha, TRB3 (Tribbles3), cleaved PARP (marker of apoptosis), and tubulin (loading control) (see FIG. 71).

XBP1 mRNA = test: RT-PCR analysis of XBP1 mRNA splicing in Panc-1 and HepG2 cells; assay type: cell-based, human; conditions: Panc-1 500-740 μM, HepG2 300 μM; 1-4 days
Experimental: XBP1-u: unspliced form of XBPI; XBPI-s: spliced form of XBP1.
1. Control; 2. 500 μM/1 day; 3. 500 μM/2 days; […]; 5. 500 μM/4 days; […]; 7. 740 μM/2 days.
Control/1 day; 2. Control/2 days; 3. Control/4 days; 4. Tunicamycin for 24 h; 5. Tunicamycin for 6 h; 6. 300 μM/1 day; 7. 300 μM/2 days; 8. 300 μM/3 days.

Metabolism = conditions: patients / human
Source text: It is presumed that CXR1002 will eventually reach a steady state level after a number of doses, in an analogous way to its accumulative exposure in monkeys.
Unlike most other anti-tumour agents, PFOA is efficiently absorbed following oral exposure.

[10] = ATP depletion, 48 hrs, read-out: IC50 1-4 (independent replicates)

Sequence of CYP2C9 (P11712 whole entry): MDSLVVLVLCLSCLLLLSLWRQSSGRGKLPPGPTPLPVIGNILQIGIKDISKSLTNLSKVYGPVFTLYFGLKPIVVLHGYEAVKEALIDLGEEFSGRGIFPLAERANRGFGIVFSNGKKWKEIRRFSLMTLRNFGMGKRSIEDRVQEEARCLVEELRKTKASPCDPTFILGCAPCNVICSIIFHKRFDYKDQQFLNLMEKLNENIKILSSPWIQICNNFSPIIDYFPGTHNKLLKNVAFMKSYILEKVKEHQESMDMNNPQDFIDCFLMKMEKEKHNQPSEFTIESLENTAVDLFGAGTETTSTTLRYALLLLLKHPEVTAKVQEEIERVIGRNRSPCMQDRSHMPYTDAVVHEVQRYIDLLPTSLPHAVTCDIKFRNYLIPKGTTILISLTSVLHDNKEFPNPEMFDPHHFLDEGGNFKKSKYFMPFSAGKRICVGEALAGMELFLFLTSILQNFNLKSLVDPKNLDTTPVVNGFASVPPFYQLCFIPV

Which results are given for O=C(O)C(F)(F)C(F)(F)C(F)(F)C(F)(F)C(F)(F)C(F)(F)C(F)(F)F [CXR1002]?
ATF3 induction (PANC-1 cells): 3 fold; activation of transcription of p21^WAF1 (p21^WAF1): did not activate transcription; IC50 (CaCo-2 [1]): 708 ± 159 µM; IC50 (Hep3B): 215 ± 28.3 µM; IC50 (PC3): 272 ± 40.7 µM; IC50 (A549): 230 ± 21.8 µM; IC50 (A2780): 238 ± 7.5 µM; IC50 (A375): 222 ± 21.2 µM; IC50 (OUMS-27; [10]): 800 µM; IC50 (OUMS-27; Homo sapiens, 48 h, ATP depletion, 48 hrs, read-out: IC50 1-4 (independent replicates)): 1000 µM; IC50 (OUMS-27; Homo sapiens, 48 h, ATP depletion, 48 hrs, read-out: IC50 Mean): 900 µM; IC50 (OUMS-27; Homo sapiens, 48 h, Example 7, 48 hour, CXR1002 0-1 mM, U0126 fixed 10 μM where combined, read-out: IC50): 821 µM; IC50 (PANC-1; [10]): > 1 mM (2×) and 880 µM; IC50 (PANC-1; Homo sapiens, PANC-1, 48 h, ATP depletion, 48 hrs, read-out: IC50 1-4 (independent replicates)): > 1000 µM; IC50 (PANC-1; Homo sapiens, PANC-1, 48 h, ATP depletion, 48 hrs, read-out: IC50 Mean): > 1000 µM; IC50 (PANC-1; Homo sapiens, PANC-1, 48 h, Example 7, 48 hour, CXR1002 0-1 mM, U0126 fixed 10 μM where combined, read-out: IC50): > 1000 µM; IC50 (BxPc3; [10]): 350 µM and 400 µM; IC50 (BxPc3; Homo sapiens, BXPC-3, 48 h, ATP depletion, 48 hrs, read-out: IC50 1-4 (independent replicates)): 370 µM; IC50 (BxPc3; Homo sapiens, BXPC-3, 48 h, ATP depletion, 48 hrs, read-out: IC50 Mean): 373 µM; IC50 (BxPc3; Homo sapiens, BXPC-3, 48 h, Example 7, 48 hour, CXR1002 0-1 mM, U0126 fixed 10 μM where combined, read-out: IC50): 381 µM; IC50 (Capan2; Homo sapiens, Capan-2, 48 h, read-out: IC50 1-4 (independent replicates), ATP depletion, 48 hrs, Capan2): 850 µM; IC50 (Capan2; Homo sapiens, Capan-2, 48 h, read-out: IC50 Mean, ATP depletion, 48 hrs, Capan2): 817 µM; IC50 (Capan2; read-out: IC50 1-4 (independent replicates), ATP depletion, 48 hrs, Capan2): 750 µM; IC50 (CaCo-2 [2]; ATP depletion, 48 hrs, CaCo-2, read-out: IC50 1-4 (independent replicates)): 690 µM and 670 µM; IC50 (CaCo-2 [2]; Homo sapiens, Caco-2, 48 h, ATP depletion, 48 hrs, CaCo-2, read-out: IC50 1-4 (independent replicates)): 680 µM; IC50 (CaCo-2 [2]; Homo sapiens, Caco-2, 48 h, ATP depletion, 48 hrs, CaCo-2, read-out: IC50 Mean): 680 µM; IC50 (CaCo-2 [2]; Homo sapiens, Caco-2, 48 h, Example 7, 48 hour, CaCO2, CXR1002 0-1 mM, U0126 fixed 10 μM where combined, read-out: IC50): 704 µM; IC50 (Canine Hepatocytes): 240 µM; BrdU incorporation ([3]; 10 μM): No marked effects; BrdU incorporation ([3]; 30 μM): variable; BrdU incorporation ([3]; 300 μM, all but one of the cell lines): Significant suppression of BrdU incorporation; induction of apoptosis ([4]; 10 μM): little effect; induction of apoptosis ([4]; 30 μM): variable responses; induction of apoptosis ([4]; 300 μM): marked induction of apoptosis; concentration at 24 h [5]: 474 µM; tumour growth ([6]; 25 mg/kg, 3 times per week): substantially delayed tumour growth; Absolute Tumour Volume as a Percentage of Saline Control ([6]; PANC-1, 25 mg/kg 3 times per week, Day 82): 50.13%; Terminal CXR1002 plasma levels ([6]; PANC-1 model, 24 hrs post last dose, Day 88): 474 ± 153 µM; In-life blood CXR1002 level (average) ([6]; PANC-1 model, in-life samples): 146 µM; growth inhibition response ([7]; 25 mg/kg 2× or 3× per week): modest response; Absolute Tumour Volume as a Percentage of Saline Control ([7]; HepG2, 25 mg/kg, combined regimens, Day 53): 77.05%; Terminal CXR1002 plasma levels ([7]; HepG2 model, ×3 weekly regimen, Days 60-64): 520 µM and 520 ± 46 µM; IC50 (CYP2C9): 0.76 µM; urinary excretion [8]: increases with multiple doses; stability (Stability / shelf life): extremely stable; expression of ER stress-regulated proteins [9]: altered expression of ER stress-regulated proteins; XBP-1 mRNA splicing (XBP1 mRNA): varies from predominately unspliced to spliced; metabolism (Metabolism): not metabolised
